This passage reports EC50 results from publication PMC5896955, “The signaling lipid sphingosine 1-phosphate regulates mechanical pain” (eLife, 2018).

In this assay the target is T1, S1P Receptor 3 (S1PR3) (Mus musculus, UniProt Q9Z0U9).
T1 construct: native receptor / S1PR3-mCherry fusion in cultured mouse DRG neurons
As to the kind of experiment: Fura-2 calcium imaging of DRG neurons with S1PR3 knockout control; also S1PR3-dependent tail current inhibition ([…]). The format is cell-based.

T1 sequence (Q9Z0U9 whole entry, the tested form may be a part): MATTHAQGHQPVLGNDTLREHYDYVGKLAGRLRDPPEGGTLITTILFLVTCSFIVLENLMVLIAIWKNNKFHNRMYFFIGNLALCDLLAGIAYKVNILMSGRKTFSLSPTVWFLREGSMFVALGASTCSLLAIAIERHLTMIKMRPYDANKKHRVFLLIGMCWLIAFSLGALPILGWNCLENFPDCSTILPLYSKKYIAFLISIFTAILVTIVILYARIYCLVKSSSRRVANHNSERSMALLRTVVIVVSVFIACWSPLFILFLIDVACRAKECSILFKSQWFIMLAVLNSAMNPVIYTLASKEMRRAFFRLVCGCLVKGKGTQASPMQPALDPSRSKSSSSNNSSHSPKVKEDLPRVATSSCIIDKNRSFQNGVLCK

The EC50 is the concentration needed to bring the measured effect to its halfway point. On to `CCCCCCCCCCCCC/C=C/[C@@H](O)[C@@H](N)COP(=O)(O)O` [S1P, Sphingosine 1-phosphate], for which the EC50 is 155 nM.
